“Also recorded” adds a separate entry of the source. Where a SMILES comes first, the peptide text is derived from it. Bridges are numbered along the chain shown (N, C = ends). Where no end group is shown, it is not given here.
Tested on: not listed separately
Assay: Body weight and body fat in diet induced obese (DIO) mice, continuous s.c. osmotic pump infusion
Format: in vivo
Conditions: DIO mice on high fat diet, 300 nmol/kg/d, infused continuously 2-4 weeks (28 days); listed as adenoregulin
Procedure: Materials & Methods: Diet induced obese (DIO) mice were employed. Obesity was induced by feeding a pelleted high-fat diet (58% of calories, #D12331, Research Diets, New Brunswick, N.J.) starting at 4 wk of age (20) for 6 wk (4 wk for the long-term study) prior to treatment. The mice then remained on this diet in powdered form throughout the treatment period unless otherwise noted. All animals were housed under a 12 hr:12 hr light-dark cycle at 21-23° C., and allowed ad libitum access to food pre- and post-treatment. […] (20 nmol/kg/d), or adenoregulin [SEQ ID NO: 33] (300 nmol/kg/d) were administered to DIO mice by Alzet® s.c. osmotic pumps. Mice were fed pelleted high-fat diet, and body weights and food intake were recorded weekly.
Body weight (BWt), at each time point, reflects the effect of test sample on BWt when expressed as % change relative to vehicle treated. For a treatment group:
% BWt loss=100*[(mean BWt change vehicle treated)−(mean BWt change treated)/mean BWt at day 0]
[…]
(§1) Significant test sample effects were identified by ANOVA (p<0.05). Where a significant difference exists, test means were compared to the control mean using Dunnett's test. One-way ANOVA with Dunnett's post test was performed using GraphPad Prism® version 3.01 for Windows, GraphPad Software, San Diego Calif.

| Compound | body weight |
| --- | --- |
| GLWSKIKEVGKEAAKAAAKAAGKAALGAVSEAV-NH2 [SEQ ID NO 33] | sustained weight reducing effect; also recorded: reduction of body weight |

Same assay, conditions: DIO mice on high fat diet, 300 nmol/kg/d, vs vehicle on high-fat or low-fat diet; listed as adenoregulin

| Compound | body fat |
| --- | --- |
| GLWSKIKEVGKEAAKAAAKAAGKAALGAVSEAV-NH2 [SEQ ID NO 33] | reduction in body fat; also recorded: reduction of body fat |

Same assay, conditions: DIO mice, 20 nmol/kg/d continuously infused

| Compound | sickness behavior |
| --- | --- |
| CC[C@H](C)[C@H](NC(=O)[C@H](CC(=O)O)NC(=O)[C@H](CC(C)C)NC(=O)[C@H](Cc1cnc[nH]1)NC(=O)[C@@H]1CSSC[C@H](N)C(=O)N[C@@H](CO)C(=O)N[C@H]2CSSC[C@H](NC(=O)[C@H](CCC(=O)O)NC(=O)[C@H](CCCCN)NC(=O)[C@H](CC(=O)O)NC(=O)[C@H](CCSC)NC(=O)[C@H](CC(C)C)NC(=O)[C@H](CO)NC(=O)[C@H](CO)NC2=O)C(=O)N[C@@H](C(C)C)C(=O)N[C@@H](Cc2ccc(O)cc2)C(=O)N[C@@H](Cc2ccccc2)C(=O)N1)C(=O)N[C@H](C(=O)N[C@@H](Cc1c[nH]c2ccccc12)C(=O)O)[C@@H](C)CC [ET-1, reference compound] | without observable sickness behavior |

Tested on: not listed separately
Assay: Reduction of food intake in fasted mice after i.p. injection of peptide
Format: in vivo, NIH/Swiss mice
Conditions: fasted mice, i.p.
From the text: In yet another embodiment, the ET receptor agonist is adenoregulin. See, e.g., Donly et al., Proc. Natl. Acad. Sci. USA 89:10960-963 (1992); Amiche et al., Biochem. Biophys. Res. Comm. 191:983-90 (1993). Known sequences for adenoregulin include Genbank sequences X70278 and X72387. Originally isolated from the skin of the frog Phyllomedusa bicolor, adenoregulin belongs to the family of dermaseptins, a family of antimicrobial peptides. See, e.g., Amiche et al., J. Biol. Chem. 269:17847-52 (1994); Zhou et al., Biotechnol. Lett. 27:725-30 (2005).
Materials & Methods: NIH/Swiss mice were fasted approximately 17 hours prior to initiation of the experiment. Peptides were injected intraperitoneally (i.p.) at time zero using doses as indicated. All mice received an intraperitoneal injection (200 μl) of either vehicle or compounds at doses indicated and were immediately presented with a pre-weighed food pellet. The food pellet was weighed at 30-minute, 1-hr, and 2-hr intervals after presentation to determine the amount of food eaten. Each point reflects n=4 for mice receiving an endothelin or endothelin agonist or n=3 for mice receiving vehicle.
Food intake values reflect, at each time point, effect of test sample on food intake is expressed as % change relative to vehicle using the formula provided below.
% basal=−100*[1−(food intake of treatment group/food intake of vehicle group)].
as §1, with “Diego,” for “Diego”, “Calif. USA.” for “Calif.”

| Compound | observable negative effects |
| --- | --- |
| CC[C@H](C)[C@H](NC(=O)[C@H](CC(=O)O)NC(=O)[C@H](CC(C)C)NC(=O)[C@H](Cc1c[nH]cn1)NC(=O)[C@@H]1CSSC[C@H](N)C(=O)N[C@@H]([C@@H](C)O)C(=O)N[C@H]2CSSC[C@H](NC(=O)[C@H](CCC(=O)O)NC(=O)[C@H](CCCCN)NC(=O)[C@H](CC(=O)O)NC(=O)[C@H](CCCCN)NC(=O)[C@H](Cc3ccc(O)cc3)NC(=O)[C@H]([C@@H](C)O)NC(=O)[C@H](Cc3ccccc3)NC2=O)C(=O)N[C@@H](C(C)C)C(=O)N[C@@H](Cc2ccc(O)cc2)C(=O)N[C@@H](Cc2ccc(O)cc2)C(=O)N1)C(=O)N[C@H](C(=O)N[C@@H](Cc1c[nH]c2ccccc12)C(=O)O)[C@@H](C)CC [ET-3, reference compound] | without observable negative effects |
| CC[C@H](C)[C@H](NC(=O)[C@H](CC(=O)O)NC(=O)[C@H](CC(C)C)NC(=O)[C@H](Cc1cnc[nH]1)NC(=O)[C@@H]1CSSC[C@H](N)C(=O)N[C@@H](CO)C(=O)N[C@H]2CSSC[C@H](NC(=O)[C@H](CCC(=O)O)NC(=O)[C@H](CCCCN)NC(=O)[C@H](CC(=O)O)NC(=O)[C@H](CCSC)NC(=O)[C@H](CC(C)C)NC(=O)[C@H](CO)NC(=O)[C@H](CO)NC2=O)C(=O)N[C@@H](C(C)C)C(=O)N[C@@H](Cc2ccc(O)cc2)C(=O)N[C@@H](Cc2ccccc2)C(=O)N1)C(=O)N[C@H](C(=O)N[C@@H](Cc1c[nH]c2ccccc12)C(=O)O)[C@@H](C)CC [ET-1, reference compound] | without observable negative effects |
| CC[C@H](C)[C@H](NC(=O)[C@H](CC(=O)O)NC(=O)[C@H](CC(C)C)NC(=O)[C@H](Cc1cnc[nH]1)NC(=O)[C@@H]1CSSC[C@H](N)C(=O)N[C@@H](CO)C(=O)N[C@H]2CSSC[C@H](NC(=O)[C@H](CCC(=O)O)NC(=O)[C@H](CCCCN)NC(=O)[C@H](CC(=O)O)NC(=O)[C@H](CC(C)C)NC(=O)[C@H](Cc3c[nH]c4ccccc34)NC(=O)[C@H](CO)NC(=O)[C@H](CO)NC2=O)C(=O)N[C@@H](C(C)C)C(=O)N[C@@H](Cc2ccc(O)cc2)C(=O)N[C@@H](Cc2ccccc2)C(=O)N1)C(=O)N[C@H](C(=O)N[C@@H](Cc1c[nH]c2ccccc12)C(=O)O)[C@@H](C)CC [ET-2, reference compound] (H-CSCSSWLDKECVYFCHLDIIW-OH; disulfide 1-15, 3-11) | without observable negative effects |

Same assay, conditions: fasted mice, i.p., 30 minutes

| Compound | food intake at 30 minutes |
| --- | --- |
| N-Succinyl-[Glu^9, Ala^11,15]-Endothelin 1 fragment 8-21 [IRL1620, reference compound] | reduced food intake |

Same assay, conditions: fasted mice, i.p., 60 minutes

| Compound | food intake at 60 minutes |
| --- | --- |
| N-Succinyl-[Glu^9, Ala^11,15]-Endothelin 1 fragment 8-21 [IRL1620, reference compound] | reduced food intake |

Same assay, conditions: fasted mice, i.p., 120 minutes

| Compound | food intake at 120 minutes |
| --- | --- |
| N-Succinyl-[Glu^9, Ala^11,15]-Endothelin 1 fragment 8-21 [IRL1620, reference compound] | no effect |

Same assay, conditions: fasted mice, peripheral (i.p.) administration, all time points examined (30, 60, 120 min)

| Compound | reduction in food intake |
| --- | --- |
| c(CTCNDMTDEECLNFCHQDVIW)-OH [Sarafotoxin S6c, reference compound] | dose-dependent reduction in food intake |

Same assay, conditions: food intake (FI) at 120 min; dose not given

| Compound | % Inhibition of FI at 120 mi [%] |
| --- | --- |
| 61 (ALWMTLLKKVLKAAAKALNAVLVGANA-OH) [compound 61] | 35.0 |
| 63 (GMWSKIKNAGKAAAKASKKAAGKAALGAVSEALGEQ-OH) [compound 63] | 50.0 |
| 42 (GLWSKIKEVGKEAAKAAAKAAGKAALGAVSEAK-NH2) [compound 42] | 48.0 |
| 55 (GLWSKIKEVGKEAAKAAAKAAGKAALGAVSEAA-NH2) [compound 55] | 54.0 |
| 44 (GLWSKIKEVGKEAAKAAAKAAGKAALGAVSEAR-NH2) [compound 44] | 34.0 |
| 36 (GLWSKIKEVGKEAAKAAAKAAGKAALGAVSEAF-NH2) [compound 36] | 92.0 |
| 37 (GLWSKIKEVGKEAAKAAAKAAGKAALGAVSEAL-NH2) [compound 37] | 79.0 |
| 45 (GLWSKIKEVGKEAAKAAAKAAGKAALGAVSEAH-NH2) [compound 45] | 23.0 |
| 38 (GLWSKIKEVGKEAAKAAAKAAGKAALGAVSEAI-NH2) [compound 38] | 78.0 |
| 49 (GLWSKIKEVGKEAAKAAAKAAGKAALGAVSEA-NH2) [compound 49] | 13.5 |
| 62 (ALWKTLLKKVLKA-NH2) [compound 62] | 28.2 |
| 33 (GLWSKIKEVGKEAAKAAAKAAGKAALGAVSEAV-NH2) [compound 33] | 77.6 |
| 57 (GLWSKIKEVGKEAAKAAAKAAGKAALGAVAEAV-NH2) [compound 57] | 74.8 |
| 39 (GLWSKIKEVGKEAAKAAAKAAGKAALGAVSEAY-NH2) [compound 39] | 61.0 |
| 40 (GLWSKIKEVGKEAAKAAAKAAGKAALGAVSEAW-NH2) [compound 40] | 61.0 |
| 51 (GLASKIKEVGKEAAKAAAKAAGKAALGAVSEAV-NH2) [compound 51] | 25.8 |
| 43 (GLWSKIKEVGKEAAKAAAKAAGKAALGAVSEAP-NH2) [compound 43] | 37.0 |
| 50 (GLWSAIKEVGKEAAKAAAKAAGKAALGAVSEAV-NH2) [compound 50] | 22.3 |
| 46 (GLWSKIKEVGKEAAKAAAKAAGKAALGAVSEA-NH2) [compound 46] | 17.0 |
| 52 (ALWSKIKEVGKEAAKAAAKAAGKAALGAVSEAV-NH2) [compound 52] | 32.3 |
| 53 (GLWSKIKEVGKEAAKAAAKAAGKAALGAASEAV-NH2) [compound 53] | 33.6 |
| 35 (GLWSKIKEVGKEAAKAAAKAAGKAALGAVSEA-NH2) [compound 35] | 28.9 |
| 64 (GMWGSLLKGVATVVKHVLPHALSSQQS-OH) [compound 64] | 22.0 |
| 58 (GLWSKIKEVGKEAAKAAAKAAGKAALGAVSAAV-NH2) [compound 58] | 78.9 |
| 56 (GLWAKIKEVGKEAAKAAAKAAGKAALGAVSEAV-NH2) [compound 56] | 71.7 |
| 59 (ALWKTMLKKLGTMALHAGKAALGAAADTISQGTQ-OH) [compound 59] | 58.0 |
| 54 (GAWSKIKEVGKEAAKAAAKAAGKAALGAVSEAV-NH2) [compound 54] | 37.3 |
| 47 (GLWSKIKEVGKEAAKAAAKAAGKAALGAVSEAVGEQ-OH) [compound 47] | 50.0 |
| 41 (GLWSKIKEVGKEAAKAAAKAAGKAALGAVSEAA-NH2) [compound 41] | 54.0 |
| 60 (ALWKTLLKKVGKVAGKAVLNAVTNMANQNEQ; not fully specified (C-terminus); printed as ALWKTLLKKVGKVAGKAVLNAVTNMANQNEQ-OH) [compound 60] | 53.0 |

Same assay, conditions: rodents; doses estimated to be less than those exerting antibiotic effects

| Compound | food intake |
| --- | --- |
| GLWSKIKEVGKEAAKAAAKAAGKAALGAVSEAV-NH2 [SEQ ID NO 33] | inhibited food intake |

Target: T1, ETA (Homo sapiens, UniProt P25101)
T1 sequence (P25101 21-427): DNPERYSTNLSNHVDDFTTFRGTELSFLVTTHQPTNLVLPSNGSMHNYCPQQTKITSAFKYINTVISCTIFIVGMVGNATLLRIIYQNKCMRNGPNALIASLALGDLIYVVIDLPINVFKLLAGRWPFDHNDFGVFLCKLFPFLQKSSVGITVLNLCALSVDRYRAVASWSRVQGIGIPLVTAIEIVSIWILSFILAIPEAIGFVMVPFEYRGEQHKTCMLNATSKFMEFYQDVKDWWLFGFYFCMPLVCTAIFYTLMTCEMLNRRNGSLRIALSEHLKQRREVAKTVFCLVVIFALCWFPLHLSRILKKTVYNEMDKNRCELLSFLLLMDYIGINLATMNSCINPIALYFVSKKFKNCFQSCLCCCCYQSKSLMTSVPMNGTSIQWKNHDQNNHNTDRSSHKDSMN
Assay: not given
Conditions: read-out: affinity for ETA; cited from earlier work

| Compound | Kd [nM] |
| --- | --- |
| CC[C@H](C)[C@H](NC(=O)[C@H](CC(=O)O)NC(=O)[C@H](CC(C)C)NC(=O)[C@H](Cc1c[nH]cn1)NC(=O)[C@@H]1CSSC[C@H](N)C(=O)N[C@@H]([C@@H](C)O)C(=O)N[C@H]2CSSC[C@H](NC(=O)[C@H](CCC(=O)O)NC(=O)[C@H](CCCCN)NC(=O)[C@H](CC(=O)O)NC(=O)[C@H](CCCCN)NC(=O)[C@H](Cc3ccc(O)cc3)NC(=O)[C@H]([C@@H](C)O)NC(=O)[C@H](Cc3ccccc3)NC2=O)C(=O)N[C@@H](C(C)C)C(=O)N[C@@H](Cc2ccc(O)cc2)C(=O)N[C@@H](Cc2ccc(O)cc2)C(=O)N1)C(=O)N[C@H](C(=O)N[C@@H](Cc1c[nH]c2ccccc12)C(=O)O)[C@@H](C)CC [ET-3, reference compound] | 6.5 |
